Source: patent US6391882B1, “4,5,6 and 7-indole and indoline derivatitives, their preparation and use” (H. Lundbeck A/S, priority 1998, dated 2002)

Experiments:
[1] = target: T1, cloned human 5-HT1A receptors (Homo sapiens, UniProt P08908); experiment: Inhibition of 3H-5-CT binding to human 5-HT1A receptors; conditions: cloned human 5-HT1A receptors in transfected HeLa cells (HA7), 15 minutes at 37° C., pH 7.7
T1 construct: expressed in transfected cells; host or cells: HeLa cells (HA7)
T1 sequence (P08908 1-422): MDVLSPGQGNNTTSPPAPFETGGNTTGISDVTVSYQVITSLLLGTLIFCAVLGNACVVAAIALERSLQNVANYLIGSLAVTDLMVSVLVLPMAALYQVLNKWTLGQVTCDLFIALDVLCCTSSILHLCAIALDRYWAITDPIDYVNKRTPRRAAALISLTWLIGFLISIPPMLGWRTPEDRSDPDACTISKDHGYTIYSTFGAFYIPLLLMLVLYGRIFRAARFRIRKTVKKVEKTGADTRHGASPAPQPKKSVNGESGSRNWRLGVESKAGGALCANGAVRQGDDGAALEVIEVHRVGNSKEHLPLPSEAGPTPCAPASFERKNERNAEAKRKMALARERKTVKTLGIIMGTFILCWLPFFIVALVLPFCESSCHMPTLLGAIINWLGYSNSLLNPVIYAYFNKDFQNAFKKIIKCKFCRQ
Protocol: The affinity of the compounds of the invention to 5-HT1A receptors was determined by measuring the inhibition of binding of a radioactive ligand at 5-HT1A receptors as described in the following test:
Inhibition of ^3H-5-CT Binding to Human 5HT1A Receptors
By this method the inhibition by drugs of the binding of the 5-HT1A agonist ^3H-5-carboxamido tryptamine (^3H-5-CT) to cloned human 5-HT1A receptors stably expressed in transfected HeLa cells (HA7) (Fargin, A. et al, J. Biol. Chem., 1989, 264, 14848) is determined in vitro. The assay was performed as a modification of the method described by Harrington, M. A. et al, J. Pharmacol. Exp. Ther., 1994, 268, 1098. Human 5-HT1A receptors (40 μg of cell homogenate) were incubated for 15 minutes at 37° C. in 50 mM Tris buffer at pH 7.7 in the presence of ^3H-5-CT. Non-specific binding was determined by including 10 μM of metergoline. The reaction was terminated by rapid filtration through Unifilter GF/B filters on a Tomtec Cell Harvester. Filters were counted in a Packard Top Counter.

[2] = target: T2, Serotonin reuptake (whole rat brain synaptosomes) (Rattus norvegicus, UniProt P31652); experiment: Inhibition of 3H-5-HT uptake into rat brain synaptosomes; assay type: biochemical
T2 construct: from tissue; host or cells: whole rat brain synaptosomes
Protocol: Inhibition of ^3H-5-HT Uptake Into Rat Brain Synaptosomes
Using this method the ability of drugs to inhibit the accumulation of ^3H-5-HT into whole rat brain synaptosomes is determined in vitro.

T2 sequence (P31652 whole entry): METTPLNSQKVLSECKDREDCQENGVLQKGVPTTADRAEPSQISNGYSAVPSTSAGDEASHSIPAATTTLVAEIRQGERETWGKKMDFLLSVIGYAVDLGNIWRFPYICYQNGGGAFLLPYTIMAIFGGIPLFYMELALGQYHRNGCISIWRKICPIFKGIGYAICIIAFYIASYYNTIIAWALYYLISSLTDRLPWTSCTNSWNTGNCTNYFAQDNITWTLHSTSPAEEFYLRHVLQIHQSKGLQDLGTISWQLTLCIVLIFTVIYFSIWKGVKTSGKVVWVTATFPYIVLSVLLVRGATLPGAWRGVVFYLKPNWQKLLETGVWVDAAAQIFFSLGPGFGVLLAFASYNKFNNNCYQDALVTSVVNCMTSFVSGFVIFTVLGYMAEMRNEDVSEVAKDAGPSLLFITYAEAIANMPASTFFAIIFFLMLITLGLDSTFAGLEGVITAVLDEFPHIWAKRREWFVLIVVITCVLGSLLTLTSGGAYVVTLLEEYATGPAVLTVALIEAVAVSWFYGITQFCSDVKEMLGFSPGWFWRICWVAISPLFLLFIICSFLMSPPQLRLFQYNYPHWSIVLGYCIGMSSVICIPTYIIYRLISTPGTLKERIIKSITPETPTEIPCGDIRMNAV

Question: With OCc1cc(N2CCN(CCc3c[nH]c4cc(Cl)ccc34)CC2)c2cc[nH]c2c1 [Compound 3b, 1-(2-(6-Chloro-1H-indol-3-yl)ethyl)-4-(6-hydroxymethyl-1H-indol-4-yl)piperazine] as the compound, how does the IC50 [1] read?
Answer: Its IC50 is 120 nM.

Question: What about the IC50 [2] of the same compound?
Answer: The IC50 was 33 nM.

Question: What about the melting point of the same compound?
Answer: Its melting point is 194 to 196 °C.

Question: Which IC50 [1] does the source give for OCc1cc(N2CCN(CCc3c[nH]c4ccc(Br)cc34)CC2)c2cc[nH]c2c1 [Compound 3c, 1-(2-(5-Bromo-1H-indol-3-yl)ethyl)-4-(6-hydroxymethyl-1H-indol-4-yl)piperazine] here?
Answer: The IC50 was 1000 nM.

Question: And the IC50 [2]?
Answer: Its IC50 is 46 nM.

Question: And the melting point?
Answer: The melting point was 163 to 165 °C.

Question: What does the source list for Clc1ccc2occ(CCN3CCN(c4cccc5[nH]ccc45)CC3)c2c1 [Compound 4t, 1-(2-(5-Chloro-3-benzofuranyl)ethyl)-4-(1H-indol-4-yl)piperazine]?
Answer: IC50 [1]: 9.4 nM; IC50 [2]: 99 nM

Question: For Cc1ccc2c(CCN3CCN(c4cccc5[nH]ccc45)CC3)coc2c1 [Compound 4u, 1-(1H-Indol-4-yl)-4-(2-(6-methyl-3-benzofuranyl)ethyl)piperazine], which IC50 [1] is on record?
Answer: The IC50 was 7 nM.

Question: What about the IC50 [2] of the same compound?
Answer: Its IC50 is 93 nM.

Question: Which IC50 [1] does the source give for Clc1cccc2c(CCN3CCN(c4cccc5[nH]ccc45)CC3)coc12 [Compound 4v, 1-(2-(7-Chloro-3-benzofuranyl)ethyl)-4-(1H-indol-4-yl)piperazine] here?
Answer: The IC50 was 4.3 nM.

Question: And the IC50 [2]?
Answer: The IC50 was 4.4 nM.

Question: With Clc1ccc2c(CCN3CCC(c4cccc5[nH]ccc45)CC3)c[nH]c2c1 [Compound 5a] as the compound, how does the IC50 [1] read?
Answer: Its IC50 is 14 nM.

Question: And the IC50 [2]?
Answer: Its IC50 is 19 nM.
